We go through 1 compound from patent US11242335B2, “Fluorine-substituted indazole compounds and uses thereof” (SUNSHINE LAKE PHARMA CO., LTD., priority 2017, dated 2022).

Data set [1] is described as follows: Pharmacokinetics in male SD rats after intravenous and oral administration. It is filed as in vivo. On the procedure: Preparation of test compound solution: The test compound was formulated with 5% dimethylsulfoxide, 5% Solutol HS 15 and 90% physiological saline to give solution, which was used for oral and intravenous administration.
Male SD rats weighing 190-250 g were randomly divided into two groups, each group had three members; one group received test compound at a dose of 1.0 mg/kg by intravenous injection, the other group received test compound at a dose of 2.5 or 5.0 mg/kg by oral. After dosing, blood samples were collected at time points of 0.0833, 0.25, 0.5, 1.0, 2.0, 4.0, 7.0 and 24 h. Standard curve was plotted based on concentrations of the samples in a suitable range, the concentrations of test compounds in plasma samples were determined by using AB SCIEX API4000 LC-MS/MS in MRM mode. Pharmacokinetic parameters were calculated according to drug concentration-time curve using a noncompartmental method by WinNonLin 6.3 software.

The target in the next data set is T1, hERG potassium channel (Homo sapiens, UniProt Q12809).
T1 construct: expressed in transfected cells; host or cells: HEK293
T1 sequence (Q12809 whole entry): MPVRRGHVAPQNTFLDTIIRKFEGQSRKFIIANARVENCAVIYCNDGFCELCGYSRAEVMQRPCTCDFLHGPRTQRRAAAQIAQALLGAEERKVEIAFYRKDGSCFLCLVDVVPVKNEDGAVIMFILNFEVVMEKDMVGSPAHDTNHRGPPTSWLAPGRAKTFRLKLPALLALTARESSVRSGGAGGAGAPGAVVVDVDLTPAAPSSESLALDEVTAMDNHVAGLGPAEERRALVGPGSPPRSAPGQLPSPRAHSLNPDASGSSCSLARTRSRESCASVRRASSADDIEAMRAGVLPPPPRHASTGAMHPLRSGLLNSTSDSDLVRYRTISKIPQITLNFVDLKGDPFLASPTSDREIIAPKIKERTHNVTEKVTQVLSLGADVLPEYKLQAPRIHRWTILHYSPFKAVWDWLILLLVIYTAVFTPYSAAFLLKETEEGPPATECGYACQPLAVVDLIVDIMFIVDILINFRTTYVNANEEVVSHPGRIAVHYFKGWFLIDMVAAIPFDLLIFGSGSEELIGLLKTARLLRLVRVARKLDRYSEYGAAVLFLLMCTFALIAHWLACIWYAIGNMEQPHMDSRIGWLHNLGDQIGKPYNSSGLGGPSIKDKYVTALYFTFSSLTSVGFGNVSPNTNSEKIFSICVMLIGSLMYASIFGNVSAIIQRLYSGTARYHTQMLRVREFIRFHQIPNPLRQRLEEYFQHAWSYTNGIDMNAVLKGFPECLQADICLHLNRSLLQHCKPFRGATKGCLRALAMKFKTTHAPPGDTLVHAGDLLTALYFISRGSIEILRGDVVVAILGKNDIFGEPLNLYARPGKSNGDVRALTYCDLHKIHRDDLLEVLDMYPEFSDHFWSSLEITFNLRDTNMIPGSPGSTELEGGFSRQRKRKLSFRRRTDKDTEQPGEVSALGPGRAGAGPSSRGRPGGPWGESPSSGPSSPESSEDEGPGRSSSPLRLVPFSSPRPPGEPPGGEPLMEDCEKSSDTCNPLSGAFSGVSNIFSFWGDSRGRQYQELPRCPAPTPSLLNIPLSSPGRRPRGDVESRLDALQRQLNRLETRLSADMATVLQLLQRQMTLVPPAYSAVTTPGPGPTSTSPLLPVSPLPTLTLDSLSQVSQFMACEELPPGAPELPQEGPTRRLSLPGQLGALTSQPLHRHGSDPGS
Kind of data set: Inhibition of hERG potassium channel, manual patch clamp in HEK293 cells. It is filed as cell-based. Particulars: hERG tail current; HEK293 cells overexpressing hERG; whole cell patch clamp; 22-24° C. On the procedure:
Each compound was weighed and dissolved in DMSO and diluted with DMSO to a serial solution (30, 10, 3.3, 1.1, 0.37 mM). The above serial solutions were diluted to 1000-fold with the extracellular fluid to prepare test solutions (final concentration was 30, 10, 3.3, 1.1, 0.37 μM respectively).
The HEK293 cells that overexpressed the hERG potassium channel were cultured in a 37° C., 5% CO2 incubator, and the culture medium contained DMEM, 15% fetal bovine serum, and 1% penicillin-streptomycin. When the cell density reached 80% of the culture plate, the cells were digested with trypsin/EDTA and transferred to a centrifuge tube, centrifuged at 1000 rpm for 3 minutes, then supernatant was discarded, and the cell culture medium was added. The cells were mixed uniformly by gently blowing and beating. […]
The whole cell recording mode was used to record the channel current in the experiment. Firstly, the extracellular fluid was perfused (approximately 2 mL per minute) and the data were continuous recorded, and the current was kept steady (the current decay was less than 5% in 5 minutes). […] The extracellular fluid containing the test compound was then perfused and the data were continuous recorded until the compound's inhibitory effect on the hERG current reached a steady state, at this time point the peak value of tail current was the current value after dosing. […]
Background: hERG is a cardiac potassium channel; its block is linked to QT prolongation.

Each structure is given as a SMILES string.

In data set [1] (po 5 mg/kg versus iv 1 mg/kg), `COC(=O)Nc1c(N)nc(-c2nn(Cc3ccccc3F)c3c(F)cccc23)nc1N` [Example 10, methyl (4,6-diamino-2-(7-fluoro-1-(2-fluorobenzyl)-1H-indazol-3-yl)pyrimidin-5-yl)carbamate] had an F of 99.6%. In data set [1] (rat, plasma, iv, 1 mg/kg), the exposure AUC(0-t) (usually the area under the concentration-time curve up to a stated or last time point) was 7520 ng·h/mL; the Cmax (usually the maximum level reached in the sampled fluid or tissue) came to 1500 ng/mL; the Tmax (in general, the time at which the peak concentration occurs) came out at 0.083 h; the clearance is 2.21 mL/min/kg. Besides, the half-life (commonly how long it takes for the measured level to halve) in data set [1] (rat, plasma, iv, 1 mg/kg) was 3.54 h. The Vd in data set [1] (rat, plasma, iv, 1 mg/kg, read-out: Vss) is 0.63 L/kg. In data set [1] (rat, plasma, po, 5 mg/kg), the AUC(0-t) worked out at 37500 ng·h/mL, the highest level (Cmax) was 3070 ng/mL, the Tmax was determined as 2 h and the half-life was 4.34 h. For the same compound, 19.9 µM corresponded to half-maximal inhibition against hERG potassium channel (IC50).
